Measured values from publication PMC12881674, “Activation of TRPV3 channels in bladder cancer cells stimulates ATP release” (Molecular Pharmacology, 2025).

Test system: KU-19-19 cells
Experiment: MTT cell viability/proliferation assay
Type: cell-based, human
Settings: 24 hours, concentrations up to 50 μM
Protocol: To monitor a potential cytotoxicity of individual compounds, 3-(4,5-dimethylthiazol-2-yl)-2,5-diphenyltetrazolium bromide (MTT) assays were performed to assess cell viability and metabolic activity. Cells (5000 per/well) were seeded in PLL-coated 96-well plates and allowed to adhere overnight. After 24 hours, culture medium was exchanged for medium containing indicated drugs, and cells were cultured for another 24 hours. Following treatment with the compounds, 100 μL of medium containing 0.5 mg/mL MTT was added, and cells were incubated for additional 3 hours. The medium was removed, and 100 μL of DMSO was added to dissolve formazan crystals. Absorbance was measured at 560 nm, with a reference wavelength at 670 nm using a plate reader (Polarstar Omega; BMG Labtech). Cell viability was calculated relative to untreated control cells.
Fig. 4 TRPV3 activation by AV3-1 was enhanced by cholesterol supplementation and causes ATP release in KU-19-19 bladder cancer cells. […] Current amplitudes were recorded using voltage ramps from −100 mV to +100 mV (500-millisecond duration) and expressed as current density (pA/pF) measured at +100 mV and −100 mV. (C) Quantification of current densities (pA/pF) at −100 mV (inward current) and +100 mV (outward current) at the time points (1, 2) as indicated in (A, B). […]

Compound: COC(=O)C12CN(Cc3ccccc3)CC1(C(=O)OC)CN(Cc1ccccc1)C2 (stereo not shown) [AV3-1]
- toxicity (cell viability and proliferation, MTT): only minor toxicity
